This is an account of results in patent US20030181401A1, “Insulin secretion promoter” (KYOWA HAKKO KOGYO CO., LTD., priority 2002, published 2003).

Holding throughout (assay type): in vivo
In test [1] the test system is C57BL/KsJ-db/db Jcl mice (model animals of Type II diabetes mellitus). Put plainly: Test Example 1: serum insulin in glucose tolerance test after 7-day oral dosing. The procedure:
Male 9-week-old C57BL/KsJ-db/db Jcl (abbreviated as “db/db” hereinafter) mice (Clea Japan, Inc.), which are model animals of Type II diabetes mellitus, were divided in groups each consisting of 6 mice, and fed a commercially available feed CE-2 (Clea Japan, Inc.) for one week, so as to accustom the animals to the environment.
After acclimation, an aqueous 10% solution of 2′-fucosyllactose (sometimes abbreviated as “2′-FL” hereinafter) was orally administered to the mice at 200 mg (2′-FL)/kg body weight in the morning and at 300 mg (2′-FL) /kg body weight in the evening. The same volume of Saline was administered to the control group. The aqueous 2′-FL solution and the saline were both dosed daily to the mice for 7 days.
During the dosing period, CE-2 was-given together with drinking water ad libitum.
After 18-hour starvation from the final dosing on day 7, an aqueous 40% glucose solution was orally administered to 2 g (glucose)/kg body weight to the mice, to perform glucose tolerance test. Zero minute and 30 minutes after glucose loading, blood was taken from tail vein. […] Blood was centrifuged (4° C., 10000 rpm, 10 minutes), to obtain serum.
Insulin in the serum recovered was assayed by enzyme immunoassay using Lebis Insulin kit (for rats-T) (Shibayagi, Co., Ltd.) as follows. The kit reacts with insulin in the sera of both rats and mice.
First, the serum recovered was diluted with the buffer attached to the kit to 5 fold. 10 μl of the diluted serum was taken and divided in the wells of the antibody-immobilized plate into which 100 μl of a biotin-bound anti-insulin antibody was added, for reaction at ambient temperature for 2 hours. After the reaction, the plate was rinsed four times with the rinse solution attached to the kit. After rinsing, 100 μl of the peroxidase-avidin bound material was divided in the wells, for reaction at ambient temperature for 30 minutes. After reaction, the plate was rinsed four times with the rinse solution. After rinsing, 100 μl of the chromogenic solution was divided in the wells, for chromogenic reaction for 30 minutes, followed by addition of 100 μl of the reaction termination solution to each well. The absorbance of the reaction solution in the wells at 450 nm was read with a plate reader.
Herein, a standard curve was prepared by using the 200 ng/ml standard insulin solution (rat) attached to the kit as a standard solution to dilute the standard solution appropriately with the buffer solution attached to the kit for the same reaction as for the serum, and plotting the relation between the concentration and the absorbance (450 nm).
Based on the prepared standard curve and the absorbance from the reaction with the serum, the insulin concentration in the serum was determined.

Test [2] relates to ICR mice. Put plainly: Test Example 8: serum insulin in glucose tolerance test after single oral 2′-FL dose. On the procedure:
Groups of male 8-week-old ICR mice (Japan SLC, Inc.) each consisting of 6 mice were fed CE-2 (Clea Japan, Inc.) for one week, so as to accustom the animals to the environment.
Then, the mice accustomed were fasted for 18 hours. An aqueous 2% solution of 2′-FL was orally administered to the mice to 100 mg (2′-FL)/kg body weight, while 0.9% saline was administered orally to the control group. Two hours after the 2′-FL dosing, an aqueous 40% glucose solution was orally administered to 2 g (glucose)/kg body weight to the mice, for glucose tolerance test. […] Blood glucose was assayed with a simple-type blood glucose assay apparatus Medisafe Reader GR-101 (Terumo, Co., Ltd.), while the serum was collected.
Insulin in the serum recovered was assayed by enzyme immunoassay using Morinaga ultra-sensitive rat insulin assay kit (Morinaga Biochemical Research Institute, Co., Ltd.) described below. 15 μl of the serum was divided in the wells of an antibody-immobilized plate, where 85 μl of the diluent attached to the kit was divided therein, for reaction at 4° C. for 2 hours. […] The absorbance of each well at 450 nm (principal wave length) and 655 nm (sub wave length) was measured with BioRad Model 3550 microplate reader (BioRad Laboratories, Inc.). […] Based on the prepared standard curve, the serum insulin concentration corresponding to the absorbance during the reaction with the serum was determined.

For test [3], the system named is ICR mice. Put plainly: Test Example 6: serum insulin after intravenous saccharide with simultaneous oral glucose loading. The procedure:
Groups of male 9-week-old ICR mice (Japan SLC, Inc.) each consisting of 7 mice were fed CE-2 (Clea Japan, Inc.) for one week, so as to accustom the animals to the environment. Then, the mice were fasted for 18 hours.
An aqueous 10% solution of 2′-FL or NeuAc was intravenously administered to the mice to 500 mg (saccharide)/kg body weight, while an aqueous 40% glucose solution was orally administered simultaneously to 2 g (glucose)/kg body weight, to the mice. To the control group, physiological saline was administered intravenously, while glucose was orally administered simultaneously to 2 g/kg body weight. Zero minute and 30 minutes after glucose loading, blood was taken from a tail vein. […] Blood was centrifuged (4° C., 10000 rpm, 10 minutes), to obtain serum.
Insulin in the serum recovered was assayed by enzyme immunoassay using Lebis Insulin kit (for mice-T) (Shibayagi, Co., Ltd.) in the same manner as in the Test Example 2.

On to 2′-fucosyllactose [2′-FL], for which the “insulin concentration after glucose loading compared with the control group (in words)” value in test [1] (continuous daily oral dosing) was “increased”. Further, in test [1] (oral 200 mg/kg morning + 300 mg/kg evening, 7 days, 18-hour starvation, glucose 2 g/kg oral, zero minute, mean ± SD), the “Serum insulin concentration after glucose loading, Zero minute” value was determined as 6.7 ± 3.3 ng/mL. The “Serum insulin concentration after glucose loading, 30 minutes” value in test [1] (oral 200 + 300 mg/kg daily, 7 days, glucose 2 g/kg oral, 30 minutes, mean ± SD) worked out at 8.3 ± 3.9 ng/mL; in test [3] (ICR mice fasted 18 hours, 500 mg/kg intravenous with simultaneous glucose 2 g/kg oral, 30 minutes, mean ± SD), 192.3 ± 57.4 pg/mL. For the same substance, the “Serum insulin concentration after glucose loading, 120 minutes” value worked out at 26.1 ± 12.8 ng/mL in test [1] (oral 200 + 300 mg/kg daily, 7 days, glucose 2 g/kg oral, 120 minutes, mean ± SD) and 2090.7 ± 533.1 pg/mL in test [3] (ICR mice fasted 18 hours, 500 mg/kg intravenous with simultaneous glucose 2 g/kg oral, 120 minutes, mean ± SD). Also, the “Serum insulin concentration after glucose loading” value in test [2] (ICR mice fasted 18 hours, 100 mg/kg single oral dose two hours before glucose 2 g/kg oral, 60 minutes, mean ± SD) was 82.6 ± 91.7 pg/mL. The “serum insulin concentration after glucose loading compared with the control group (in words)” value is “increased” in test [2] (ICR mice, single oral dosing 120 minutes before glucose dosing) and “increased” in test [3] (ICR mice, intravenous dosing).
